Tests used:
[1] = tested on: PDGF-induced gliomas that expressed G12D mutant KRAS; experiment: Survival of mice with PDGF-induced gliomas expressing G12D mutant KRAS treated with Plinabulin plus TMZ plus radiation; type: in vivo; details: Plinabulin 7.5 mg/kg i.p. twice a week for 10 weeks plus TMZ plus radiation 10gy x1; p=0.0149
Procedure: Mice with PDGF-induced gliomas that expressed G12D mutant KRAS were prepared using the procedures according to Example 1 and used in this experiment. 4-6 week old nestin-tv-a/ink4a-arf−/− mice were anesthetized with Isoflurane and injected with Df-1 cells transfected RCAS-PDGF-B-HA, RCAS-KRAS. Mice were injected with one microliter of a 1:1 mixture of 2×10^5 RCAS-PDGF-B-HA/RCAS-KRAS using a stereotactic frame via a 26-gauge needle attached to a Hamilton syringe. Cells were injected into the right frontal cortex, coordinates bregma 1.75 mm, Lat −0.5 mm, and a depth of 2 mm.
The mice were entered into two study groups. One group was treated with the combination of temozolomide (TMZ), Radiation and Plinabulin: radiation was given at 10gy×1, TMZ and Plinabulin 7.5 mg/kg in Plinabulin diluent was administered intraperitoneally twice a week on Monday and Thursday for 10 weeks. The other group, the control group, was treated with the combination of TMZ and radiation: radiation was given at 10gy×1, TMZ was administered intraperitoneally twice a week on Monday and Thursday for 10 weeks. the mice were monitored for lethargy, hunched posture, appetite loss, outward signs of tumor growth, agitation, weight-loss and overall failure to thrive. […]

[2] = tested on: PDGF-induced gliomas that expressed G12D mutant KRAS; experiment: Survival of mice with PDGF-induced gliomas expressing G12D mutant KRAS treated with Plinabulin; type: in vivo; details: Plinabulin 7.5 mg/kg i.p. twice per week for 10 weeks; control: Plinabulin diluent only; p=0.001
From the text: Mice with PDGF-induced gliomas using RCAS/tv-a were generated. The mice were transgenic for expression of the RCAS receptor (tv-a) from the nestin promoter and having a background of ink4a/arf−/− and lox-stop-lox luciferase, were infected with RCAS-PDGF, or the combination of RCAS-PDGF and RCAS-KRAS that expressed G12D mutant KRAS. The resultant tumors occurred within the first 4-5 weeks in this background for PDGF alone, and about a week shorter for the tumors arising from the combination of PDGF and RCAS. The tumors had the histological characteristics of GBM and were identified by symptoms of lethargy and poor grooming, MRI scans using a T2 weighted sequence, or bioluminescence imaging with an IVIS system. For radiation therapy, mice were treated with 10Gy per day cranially for a single dose.
Plinabulin was tested on mice with PDGF-induced gliomas that expressed G12D mutant KRAS. 4-6 week old nestin-tv-a/ink4a-arf−/− mice were anesthetized with Isoflurane and injected with Df-1 cells transfected RCAS-PDGF-B-HA, RCAS-KRAS. Mice were injected with one microliter of a 1:1 mixture of 2×10^5 RCAS-PDGF-B-HA/RCAS-KRAS using a stereotactic frame via a 26-gauge needle attached to a Hamilton syringe. […] The mice were monitored for lethargy, hunched posture, appetite loss, outward signs of tumor growth, agitation, weight-loss and overall failure to thrive. […]

CC(C)(C)c1[nH]cnc1/C=c1\[nH]c(=O)/c(=C/c2ccccc2)[nH]c1=O [Plinabulin, (3Z,6Z)-3-Benzylidene-6-{[5-(2-methyl-2-propanyl)-1H-imidazol-4-yl]methylene}-2,5-piperazinedione]
survival rate vs control group that received TMZ plus radiation (FIG. 4) [1]: significantly better survival rate | survival rate vs control group (FIG. 3) [2]: significantly better survival rate
